Test results: patent US11827612B2, “Hydroxamic acid derivative, method for producing same and use thereof” (INSTITUTE OF MEDICINAL BIOTECHNOLOGY, CHINESE ACADEMY OF …, priority 2019, dated 2023)
In brackets after ≈: the same amount, converted by molar mass.

Tests used:
E. coli ATCC 25922 = assay: Antibiotic susceptibility test, broth microdilution (CLSI), MIC; assay type: cell-based; conditions: Escherichia coli, ATCC25922, 35° C., 18 h, read-out: Minimal inhibitory concentration (MIC)
Method: (§1) An antibiotic susceptibility test was carried out using the broth microdilution guidelines as stipulated by the Clinical and Laboratory Standards Institute (CLSI). Test organisms were grown in Mueller-Hinton (MH) or Brain Heart Infusion (BHI) broth. Solutions of compounds to be tested were each diluted in 96-well plates (50 μl per well) to various prescribed concentrations with the MH or BHI broth. Final concentrations of the solutions in each well were as follows: 128, 64, 32, 16, 8, 4, 2, 1, 0.5, 0.25, 0.125, 0.06, and 0.03 μg/ml. The culture mediums in the 96-well plates were inoculated with 5×10^5 CFU/ml of the test organisms, and then the organisms were cultured at 35° C. for 18 h.

[1] = test system: Enterobacter aerogenes ATCC 13048; assay: as above; assay type: cell-based; conditions: Klebsiella aerogenes, ATCC13048, 35° C., 18 h, read-out: Minimal inhibitory concentration (MIC)
Method: as §1

[2] = test system: Enterobacter cloacae ATCC 43560; assay: as above; assay type: cell-based; conditions: ATCC43560, 35° C., 18 h, read-out: Minimal inhibitory concentration (MIC)
Method: as §1

[3] = test system: Klebsiella pneumoniae ATCC 700603; assay: as above; assay type: cell-based; conditions: ATCC700603, 35° C., 18 h, read-out: Minimal inhibitory concentration (MIC)
Method: as §1

[4] = test system: NDM-1-producing Klebsiella pneumoniae 2146; assay: as above; assay type: cell-based; conditions: 35° C., 18 h, read-out: Minimal inhibitory concentration (MIC)
Method: as §1

[5] = test system: Pseudomonas aeruginosa ATCC 27853; assay: as above; assay type: cell-based; conditions: ATCC27853, 35° C., 18 h, read-out: Minimal inhibitory concentration (MIC)
Method: as §1

[6] = Experiments of toxicity in mice, tail vein injection; assay type: in vivo; conditions: both sexes, ICR, mouse, in vivo
Method: (§2) ICR mice of either sex weighing between 18-22 g were randomized into groups of 3 mice per group. […] The number of mice that died and the time of death were recorded. […] Tails were removed from the mice that were not dead from the injection and from the normal mice that were not given any of the compounds, and were then fixed in paraformaldehyde. Tail vessels were observed by HE staining to determine whether or not a lesion existed.

ICR mice = assay: as above; assay type: in vivo; conditions: for Toxicity/yes or no: ICR mice, tail vein injection; for Mortality rate / Number of deaths / Time of death: both, ICR, mouse, in vivo
Method: as §2

Compound	MIC (E. coli ATCC 25922) [µg/mL]	MIC [1] [µg/mL]	MIC [2] [µg/mL]	MIC [3] [µg/mL]	MIC [4] [µg/mL]	MIC [5] [µg/mL]	MTD [6] [mg/kg]	Toxicity/yes or no (ICR mice; dose 100 mg/kg)	Toxicity/yes or no (ICR mice; dose 200 mg/kg)	Toxicity/yes or no (ICR mice; dose 300 mg/kg)	Mortality rate (ICR mice; 100 mg/kg) [%]	Number of deaths (ICR mice; 100 mg/kg)	Mortality rate (ICR mice; 200 mg/kg) [%]	Number of deaths (ICR mice; 200 mg/kg)	Time of death (ICR mice; 200 mg/kg) [min]	Mortality rate (ICR mice; 300 mg/kg) [%]	Number of deaths (ICR mice; 300 mg/kg)	Time of death (ICR mice; 300 mg/kg) [min]
CC(C)(N)[C@H](NC(=O)c1ccc(C#CC#Cc2ccc(CN3CCCCC3)cc2)cc1O)C(=O)NO [I-3, (S)—N-(3-amino-1-(hydroxyamino)-3-methyl-1-oxobutan-2-yl)-2-hydroxy-4-((4-(piperidin-1-ylmethyl)phenyl)butan-1,3-diyne-1-yl)benzamide]	0.125 (≈ 0.256 µM)	2 (≈ 4.09 µM)	1 (≈ 2.05 µM)	4 (≈ 8.19 µM)	2 (≈ 4.09 µM)	0.5 (≈ 1.02 µM)	> 100	no	yes	yes	0	0	66	2	10 to 20	100	1	1
CC(C)(N)[C@H](NC(=O)N1CCN(C#CC#Cc2ccc([N+](=O)[O-])cc2)CC1)C(=O)NO [I-2, (S)—N-(3-amino-1-(hydroxyamino)-3-methyl-1-oxobutan-2-yl)-4-((4-nitrophenyl)butan-1,3-diyne-1-yl)-piperazin-1-carboxamide]	0.125 (≈ 0.292 µM)	2 (≈ 4.67 µM)	0.5 (≈ 1.17 µM)	2 (≈ 4.67 µM)	2 (≈ 4.67 µM)	0.25 (≈ 0.584 µM)	> 100	no	yes	yes	0	0	66	2	10 to 15	100	1	0.5 to 1
C[C@H]1COc2c(N3CCN(C)CC3)c(F)cc3c(=O)c(C(=O)O)cn1c23 [Levofloxacin, levofloxacin, reference compound]	≤ 0.25	≤ 0.25	≤ 0.25	0.5 (≈ 1.38 µM)	> 64	1 (≈ 2.77 µM)												
CO[C@H]1CCC[C@@H]1C#CC#Cc1ccc(C(=O)N[C@H](C(=O)NO)C(C)(C)N)cc1 [I-1, N—((S)-3-amino-1-(hydroxyamino)-3-methyl-1-oxobutan-2-yl)-4-(((1R,2S)-2-methoxycyclopentyl)butan-1,3-diyne-1-yl)benzamide]	0.125 (≈ 0.314 µM)	1 (≈ 2.52 µM)	1 (≈ 2.52 µM)	2 (≈ 5.03 µM)	2 (≈ 5.03 µM)	0.5 (≈ 1.26 µM)	> 100	no	yes	yes	0	0	66	2	10 to 20	100	1	1
